# What was measured:
# Culex pipiens pallens [1] = experiment: Test Example 2: vapor exposure over treated aluminum dish in an inverted cup, knockdown rate; type: in vivo; settings: 0.002% (w/v) acetone solution, drug amount about 2 mg per 1 m^2, female imagos, after 60 minutes
# Method: A 0.002% (w/v) solution of a test compound in acetone was prepared. Then, 0.64 ml of the acetone solution was dropped onto the bottom of an aluminum dish having a diameter of 9 cm. Then, acetone was air-dried (drug amount: about 2 mg per 1 m^2). Ten female imagos of Culex pipiens pallens were released in a polyethylene cup (diameter: 9 cm; height: 4.5 cm), and the upper opening portion of the polyethylene cup was covered with a 16 mesh nylon net. Next, the cup was inverted onto the aluminum dish. After 60 minutes, the number of knocked down mosquitoes was counted and a knockdown rate was calculated (2 repetitions). As a result, the knockdown rate of the present compound (1) was 70%.
# Culex pipiens pallens [2] = experiment: Test Example 1: topical application of acetone solution to the nota of female imagoes, death rate; type: in vivo; settings: 0.015 μg of the test compound per mosquito, 0.005% (w/v) acetone solution, after 24 hours
# Method: A 0.005% (w/v) solution of a test compound in acetone was prepared. The nota of 10 female imagoes of Culex pipiens pallens were treated with the acetone solution in an amount of 0.015 μg of the test compound per mosquito. Then, water and feed were given to the test mosquitoes. After 24 hours, the number of dead mosquitoes was counted, and a death rate was calculated (2 repetitions).
SMILES,knockdown rate (Culex pipiens pallens [1]),Death rate (%) (Culex pipiens pallens [2])
"C#CCc1c(F)c(F)c(COC(=O)[C@@H]2[C@@H](C)C2(C)C)c(F)c1F [Present compound (1), 4-(2-propynyl)-2,3,5,6-tetrafluorobenzyl (1R)-trans-2,2,3-trimethylcyclopropanecarboxylate]",70%,95%
"COCc1c(F)c(F)c(COC(=O)[C@@H]2[C@@H](C)C2(C)C)c(F)c1F [Comparative compound (B), 4-methoxymethyl-2,3,5,6-tetrafluorobenzyl (1R)-trans-2,3,3-trimethylcyclopropanecarboxylate, reference compound]",–,55%

# — patent publication US7956089B2, “Cyclopropanecarboxylate and pest controlling composition containing the same” (Sumitomo Chemical Company, Limited, priority 2007, dated 2011)
